# [ ]: non-standard residue; d: D form. pGlu = O=C1CC[C@@H](C(=O)O)N1
# Legend:
# [1] = Open-label phase IIa clinical study: safety and tolerability; format: in vivo, human
# Description: The study outline is depicted in FIG. 3.
# [2] = system: CD4+ and CD8+ T cells (PBMCs from a healthy donor); assay: MHC class I expression after stimulation of T cells with GnRH II (FIG. 1); format: cell-based, human; conditions: GnRH II and IL-2 for 72 hours, flow cytometry
# Protocol: FIG. 1: Expression of MHC class I after stimulation of T cells with increasing concentrations of GnRH II. PBMCs from a healthy donor was stimulated with GnRH II and IL-2 for 72 hours. Data points represent mean fluorescent intensity of MCH class I expression on CD4^+ T cells (blue triangles) or CD8^+ T cells (black squares) measured with flow cytometry.
# CD4+ T-lymphocytes = conditions: BB rats exhibiting an AIDS-like lymphocyte profile; cited from earlier work
compound,measurement,setting,value
CCNC(=O)[C@@H]1CCCN1C(=O)[C@H](CCCNC(=N)N)NC(=O)[C@H](CC(C)C)NC(=O)[C@@H](COC(C)(C)C)NC(=O)[C@H](Cc1ccc(O)cc1)NC(=O)[C@H](CO)NC(=O)[C@H](Cc1c[nH]c2ccccc12)NC(=O)[C@H](Cc1cnc[nH]1)NC(=O)[C@@H]1CCC(=O)N1 [buserelin acetate],"Any AE affecting impotence, % of patients",[1]; Safety (n = 26),(23.1%)
same,"Any AE affecting libido, % of patients",[1]; Safety (n = 26),(30.8%)
same,"Any AE leading to discontinuation, % of patients",[1]; Safety (n = 26),(3.8%)
same,"Any AE, % of patients",[1]; Safety (n = 26),(100.0%)
same,"Any SAE, % of patients",[1]; Safety (n = 26),(0.0%)
same,"Any treatment-related AE, % of patients",[1]; Safety (n = 26),(65.4%)
same,"Any treatment-related SAE, % of patients",[1]; Safety (n = 26),(0.0%)
same,"Death, % of patients",[1]; Safety (n = 26),0.0%
same,grading of adverse events,[1]; in words,All adverse events except one was graded as mild
same,overall safety and tolerability of the treatment,[1]; in words,safe and well-tolerated
same,serious adverse events (SAEs) during the study,[1]; in words,no serious adverse events
"pyroGlu-His-Trp-Ser-His-Gly-Trp-Tyr-Pro-Gly-NH2 ([pGlu]HWSHGWYPG-NH2; SMILES NC(=O)CNC(=O)[C@@H]1CCCN1C(=O)[C@H](Cc1ccc(O)cc1)NC(=O)[C@H](Cc1c[nH]c2ccccc12)NC(=O)CNC(=O)[C@H](Cc1c[nH]cn1)NC(=O)[C@H](CO)NC(=O)[C@H](Cc1c[nH]c2ccccc12)NC(=O)[C@H](Cc1c[nH]cn1)NC(=O)[C@@H]1CCC(=O)N1) [GnRH II, second, non-hypothalamic form of GnRH]",MHC class I expression on T cells,[2],stimulates MHC class I expression
"pyroGlu-His-Trp-Ser-Tyr-Gly-Leu-Arg-Pro-Gly-NH2 (EHWSYGLRPG; N-terminal pyroglutamate, C-terminal amide; printed: Glu-His-Trp-Ser-Tyr-Gly-Leu-Arg-Pro-Gly-) [GnRH I, decapeptide hormone]",CD4+ T-lymphocyte numbers,CD4+ T-lymphocytes,increased
